Assay results reported in US20220241378A1, “COMPOSITIONS AND METHODS FOR TREATMENT OF CHRONIC GRANULOMATOUS DISEASE” (priority 2019, published 2022).

System: C57BL/6 and p47phox-/- mice infected intranasally with A. fumigatus conidia
Assay: Lung inflammation model: C57BL/6 and p47phox-/- mice infected intranasally with A. fumigatus
Type: in vivo
Settings: p47phox-/- aspergillosis mice
Description: In vivo models mimicking human pathology such as lung and gut inflammation were prepared. A model of lung inflammation was tested using C57BL/6 and p47phox-/- mice. The mice were infected with A. fumigatus intranasally and treated them with Tβ4 for 7 consecutive days starting a week after the infection. LC3-II (FIG. 1F) and DAPK1 (FIG. 1G) expression were both defective in p47phox-/- mice, but restored by Tβ4 and ablated (LC3-II) upon siTβ4 (FIGS. 10A and 10B). In addition, gut inflammation was tested using the same mouse model. Acute colitis in p47phox-/- mice was initiated by administering […] in drinking water for 7 days followed by 7 days of DSS-free autoclaved water. Subsequently, Tβ4 was therapeutically administered daily for 7 days, after DSS treatment, at the time at which mice started to lose weight. Consistent with previous findings (de Luca et al., 2014), LC3-II (FIG. 1H) and DAPK1 (FIG. 1I) expression were both defective in the colon ofp47phox-/- mice with colitis as opposed to WT mice but restored upon treatment with T134 (FIGS. 1H and 1I). DAPK1 expression in colon lysates of C57BL/6 and p47^phox-/- mice subjected to DSS-induced colitis for a week and treated intraperitoneally with 5 mg/kg Tβ4 for 7 consecutive days after DSS treatment, n=6-10 mice per group. Data are presented as mean ±SD and are representative of two experiments. Mice were categorized as Naive (uninfected or untreated mice) or None (infected mice). For immunoblotting, normalization was performed on mouse β-actin or Gapdh and corresponding pixel density or ratio is depicted. For immunofluorescence, nuclei were counterstained with DAPI. Photographs were taken with a high-resolution microscope (Olympus BX51), 40× and 100× magnification. LC3 mean fluorescence intensity (MFI) was measured with the ImageJ software. In FIGS. 1F-1H, n=6-10 mice per group. Data are presented as mean ±SD and are representative of two experiments. Naïve, uninfected or untreated mice. None, infected mice.
Viable conidia from the A. fumigatus Af293 strain were obtained as described (De Luca et al., 2012). Mice were anesthetized in a plastic cage by inhalation of 3% isoflurane (Forane Abbot) in oxygen before intranasal instillation of 2×10^7 resting conidia/20 μl saline. For survival curves, p47^phox-/- mice were challenged with […] conidia/20 μl saline. Tβ4 was administered intraperitoneally (i.p.) at the dose of 5 mg/kg at an effective dose as described (Badamchian et al., Thymosin beta(4) reduces lethality and down-regulates inflammatory mediators in endotoxin-induced septic shock. Int Immunopharmacol, 2003 3(8): p. 1225-33), every day in concomitance with (days 0→7) or after (days 7→14) infection. DMOG (Merck Millipore) was administered i.p. at the dose of 8 mg/mouse concomitantly to the infection. For Hif1a silencing, each mouse received intranasal administration of 10 mg/kg unmodified siRNA [Duplex name mm.Ri.Hif1a.13.1 (IDT); 5′-[…]-3′; 3′-[…] -5′] and Tmsb4x silencing [Duplex name mm.Ri.Tmsb4x.13.1; 5′-[…]-3′; 3′-[…] -5′], or equivalent dose of nonspecific control siRNA duplex in a volume of 20 μl of duplex buffer (IDT). Intranasal siRNA was given once the day before infection and 1, 3 and 5 days after infection (Iannitti et al., 2013 Hypoxia promotes danger-mediated inflammation via receptor for advanced glycation end products in cystic fibrosis. Am J Respir Crit Care Med 188:1338-1350). It is known that lung-specific siRNA delivery can be achieved by intranasal administration without the use of viral vectors or transfection agents in vivo (Iannitti et al., 2013 Th17/Treg imbalance in murine cystic fibrosis is linked to indoleamine 2,3-dioxygenase deficiency but corrected by kynurenines. Am J Respir Crit Care Med 187:609-620). Mice were sacrificed 7 or 14 days post infection. Fungal burden was determined by qPCR and expressed as conidial equivalents (CE). Lung tissue was aseptically removed and homogenized in 3 ml of sterile saline. […]

Question: With `COC(=O)CNC(=O)C(=O)OC` [DMOG, dimethyloxalylglycine, reference compound] as the compound, how does the fungal burden (DMOG for 5 days (FIG. 7A)) read?
Answer: reduced

Question: What about the lung pathology (DMOG for 5 days (FIG. 7B)) of the same compound?
Answer: ameliorated

Question: What about the HIF-1α expression (DMOG for 5 days (FIG. 7C)) of the same compound?
Answer: increased

Question: And the HIF-1α-responsive genes (DMOG for 5 days (FIG. 7D))?
Answer: up-regulated
